Test results from ChEMBL document CHEMBL1127097, “Tetrazole amino acids as competitive NMDA antagonists” (Bioorg Med Chem Lett, 1993).

How the values were obtained:
[1] = molecular target: Glutamate [NMDA] receptor; assay: Tested in vitro for the affinity against NMDA receptor by examining its ability to inhibit [3H]-CGS-19,755 binding; format: protein-complex assay
[2] = test system: Glutamate [NMDA] receptor; assay: Tested in vitro for the affinity against NMDA receptor in a cortical wedge assay; A- Compound acted as […]; format: functional
Mus musculus = assay: Minimum effective dose tested by ip administration for its ability to block NMDA induced lethality in mice.; format: functional; conditions: read-out: MED
[3] = molecular target: Glutamate [NMDA] receptor; assay: Tested in vitro for the affinity against NMDA receptor in a cortical wedge assay; format: protein-complex assay
[4] = test system: Glutamate [NMDA] receptor; assay: Tested in vitro for the affinity against NMDA receptor in a cortical wedge assay; A- compound acts as antagonist; format: functional

SMILES	IC50 [1]	IC50 [2]	minimal effective dose (Mus musculus)	IC50 [3]	IC50 [4]
N[C@@H](CCc1nnn[nH]1)C(=O)O	1600 nM	Agonist	> 160 mg/kg		
O=C(O)C1CN(CCCc2nnn[nH]2)CCN1 (centres undefined)	3150 nM		40 mg/kg	16300 nM	
O=C(O)C1CN(Cc2nn[nH]n2)CCN1 (centres undefined)	1670 nM		> 80 mg/kg	8200 nM	
O=C(O)C1CN(CCc2nnn[nH]2)CCN1 (centres undefined)	781 nM		160 mg/kg	4700 nM	
N[C@H](Cc1nnn[nH]1)C(=O)O	685 nM		> 160 mg/kg	> 100000 nM	
N[C@H](CCc1nnn[nH]1)C(=O)O	925 nM		> 160 mg/kg	31600 nM	
O=C(O)[C@H]1C[C@@H](Cc2nnn[nH]2)CCN1	107 nM		5 mg/kg	4200 nM	
O=C(O)C1CN(CCCP(=O)(O)O)CCN1 (centres undefined)	220 nM		2.5 mg/kg	600 nM	
N[C@H](CCCCCP(=O)(O)O)C(=O)O	461 nM		160 mg/kg	11100 nM	
O=C(O)C1CN(CCCCc2nnn[nH]2)CCN1 (centres undefined)	> 10000 nM		> 80 mg/kg		
N[C@@H](Cc1nnn[nH]1)C(=O)O	639 nM		> 160 mg/kg	> 100000 nM	
NC(CCCCCc1nnn[nH]1)C(=O)O (centres undefined)	> 10000 nM		> 160 mg/kg	> 100000 nM	
Cl.NC(CCCc1nnn[nH]1)C(=O)O (centres undefined)	1050 nM		> 160 mg/kg		Antagonist
Cl.NC(CCCCc1nnn[nH]1)C(=O)O (centres undefined)	10000 nM		> 160 mg/kg		Antagonist
Cl.NC(CCCCCCc1nnn[nH]1)C(=O)O (centres undefined)	> 10000 nM		> 160 mg/kg	> 100000 nM	
N[C@H](CCCP(=O)(O)O)C(=O)O	177 nM		160 mg/kg	3700 nM	
O=C(O)[C@@H]1C[C@H](CP(=O)(O)O)CCN1 (single isomer, unassigned) [SELFOTEL]	54 nM			1600 nM	
